Here are results for 26 compounds from PubChem BioAssay AID248 (DTP/NCI, 2004).

The test relates to L1210 leukemia ip in BDF1 mice, survival T/C. In words: NCI In Vivo Anticancer Drug Screen. Data for tumor model L1210 Leukemia (intraperitoneal) in B6D2F1 (BDF1) mice. As to conditions: endpoint: mean survival time, higher = longer survival. The procedure, abridged:
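Tumor was transplanted into mice, which were then dosed with test compound or vehicle alone. Survival was recorded for each group, and the treated figure was expressed relative to the control figure.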

[1] abbreviates: dose: 100.0 mg/kg/injection, schedule: Q01DX009 (ip), vehicle: Klucel (hydroxypropylcellulose) (HPC).
The mark [2] stands for this setting: dose: 100.0 mg/kg/injection, schedule: Q04DX003 (ip), vehicle: Klucel (hydroxypropylcellulose) (HPC).
[3] abbreviates: dose: 200.0 mg/kg/injection, schedule: Q01DX009 (ip), vehicle: Klucel (hydroxypropylcellulose) (HPC).
The mark [4] stands for this setting: dose: 200.0 mg/kg/injection, schedule: Q04DX003 (ip), vehicle: Klucel (hydroxypropylcellulose) (HPC).
Where [5] appears, read: dose: 400.0 mg/kg/injection, schedule: Q01DX009 (ip), vehicle: Klucel (hydroxypropylcellulose) (HPC).
[6] abbreviates: dose: 400.0 mg/kg/injection, schedule: Q04DX003 (ip), vehicle: Klucel (hydroxypropylcellulose) (HPC).
Setting [7] is: dose: 50.0 mg/kg/injection, schedule: Q04DX003 (ip), vehicle: Klucel (hydroxypropylcellulose) (HPC).
The mark [8] stands for this setting: dose: 25.0 mg/kg/injection, schedule: Q01DX Z (ip), vehicle: methylcellulose (MC).
Setting [9] is: dose: 100.0 mg/kg/injection, schedule: Q01DX001 (ip), vehicle: saline.
Setting [10] is: dose: 200.0 mg/kg/injection, schedule: Q01DX001 (ip), vehicle: saline.
Setting [11] is: dose: 400.0 mg/kg/injection, schedule: Q01DX001 (ip), vehicle: saline.
Where [12] appears, read: dose: 100.0 mg/kg/injection, schedule: Q01DX009 (ip), vehicle: saline with Tween-80.
Where [13] appears, read: dose: 100.0 mg/kg/injection, schedule: Q04DX003 (ip), vehicle: saline with Tween-80.
Where [14] appears, read: dose: 200.0 mg/kg/injection, schedule: Q01DX009 (ip), vehicle: saline with Tween-80.
Where [15] appears, read: dose: 200.0 mg/kg/injection, schedule: Q04DX003 (ip), vehicle: saline with Tween-80.
Setting [16] is: dose: 400.0 mg/kg/injection, schedule: Q01DX009 (ip), vehicle: saline with Tween-80.
[17] abbreviates: dose: 400.0 mg/kg/injection, schedule: Q04DX003 (ip), vehicle: saline with Tween-80.
The mark [18] stands for this setting: dose: 100.0 mg/kg/injection, schedule: Q01DX001 (ip), vehicle: other.
The mark [19] stands for this setting: dose: 200.0 mg/kg/injection, schedule: Q01DX001 (ip), vehicle: other.
Where [20] appears, read: dose: 400.0 mg/kg/injection, schedule: Q01DX001 (ip), vehicle: other.

Toxic doses and inconclusive results are not listed.

In the case of `Cc1ccc(S(=O)(=O)NC(CSSCC(NS(=O)(=O)c2ccc(C)cc2)C(=O)OC(C)(C)C)C(=O)OC(C)(C)C)cc1` (centres undefined), the T/C under setting [1] was 101 % of control; the T/C under setting [2] is 98 % of control; the T/C under setting [3] was 106 % of control; the T/C under setting [4] is 101 % of control; the T/C under setting [5] is 95 % of control; the T/C under setting [6] is 98 % of control.
In the case of `C=C1C(=O)OC2CC3(C)OC3C3OC3C3=CC(OC3=O)C12` (centres undefined), the T/C (dose: 5.0 mg/kg/injection, schedule: Q01DX001 (ip), vehicle: carboxymethylcellulose (CMC)) is 112 % of control.
As for `O=C(NC(CSC(c1ccc(Cl)cc1)c1ccc(Cl)cc1)C(=O)O)OCc1ccccc1` (centres undefined), the T/C (dose: 25.0 mg/kg/injection, schedule: Q04DX003 (ip), vehicle: Klucel (hydroxypropylcellulose) (HPC)) is 102 % of control; the T/C under setting [7] was 91 % of control; the T/C under setting [2] is 97 % of control.
For the compound `Cc1ccnc(SC#N)n1`, the T/C reads like this: (dose: 5.0 mg/kg/injection, schedule: Q01DX001 (ip), vehicle: other) 105 % of control; (dose: 10.0 mg/kg/injection, schedule: Q01DX001 (ip), vehicle: other) 105 % of control.
As for `CCn1c(Cl)c(C(=O)O)c2ccccc21`, the T/C by setting is: under setting [7], 97 % of control; under setting [2], 97 % of control; under setting [4], 97 % of control.
Turning to `O=C(O)c1cn(C2CCCCC2)c(=O)[nH]c1=O`, the T/C reads like this: under setting [8], 107 % of control; (dose: 50.0 mg/kg/injection, schedule: Q01DX Z (ip), vehicle: methylcellulose (MC)) 91 % of control.
On to `C1CC2CN(CCCN3CCOCC3)C(C1)O2` (centres undefined), for which the T/C (dose: 50.0 mg/kg/injection, schedule: Q01DX001 (ip), vehicle: saline) is 95 % of control; the T/C under setting [9] was 101 % of control; the T/C under setting [10] is 101 % of control; the T/C under setting [11] is 97 % of control.
`Nc1[nH]c(=S)ncc1-c1cccc(Cl)c1`: the T/C runs as follows: (dose: 50.0 mg/kg/injection, schedule: Q01DX001 (ip), vehicle: Klucel (hydroxypropylcellulose) (HPC)) 110 % of control; (dose: 100.0 mg/kg/injection, schedule: Q01DX001 (ip), vehicle: Klucel (hydroxypropylcellulose) (HPC)) 117 % of control; (dose: 200.0 mg/kg/injection, schedule: Q01DX001 (ip), vehicle: Klucel (hydroxypropylcellulose) (HPC)) 114 % of control.
With `c1ccc(OCC2CO2)cc1` (centres undefined), the T/C reads like this: (dose: 50.0 mg/kg/injection, schedule: Q01DX001 (ip), vehicle: carboxymethylcellulose (CMC)) 100 % of control; (dose: 100.0 mg/kg/injection, schedule: Q01DX001 (ip), vehicle: carboxymethylcellulose (CMC)) 100 % of control; under setting [12], 96 % of control; under setting [13], 95 % of control; (dose: 200.0 mg/kg/injection, schedule: Q01DX001 (ip), vehicle: carboxymethylcellulose (CMC)) 105 % of control; under setting [14], 93 % of control. Besides, the T/C under setting [15] was 97 % of control; the T/C (dose: 400.0 mg/kg/injection, schedule: Q01DX001 (ip), vehicle: carboxymethylcellulose (CMC)) is 97 % of control; the T/C under setting [16] was 98 % of control; the T/C under setting [17] is 97 % of control.
Take `CCOC(=O)c1ccc(NCC#N)cc1`: the T/C is, setting by setting: (dose: 25.0 mg/kg/injection, schedule: Q01DX009 (ip), vehicle: saline with Tween-80) 92 % of control; (dose: 50.0 mg/kg/injection, schedule: Q01DX009 (ip), vehicle: saline with Tween-80) 95 % of control; (dose: 100.0 mg/kg/injection, schedule: Q01DX001 (ip), vehicle: saline with Tween-80) 97 % of control; under setting [12], 94 % of control; (dose: 200.0 mg/kg/injection, schedule: Q01DX001 (ip), vehicle: saline with Tween-80) 92 % of control; under setting [14], 91 % of control. The T/C (dose: 400.0 mg/kg/injection, schedule: Q01DX001 (ip), vehicle: saline with Tween-80) was 98 % of control and the T/C under setting [16] was 102 % of control.
As to `O=C(O)C1(c2ccccc2)OCCO1`, the T/C was 95 % of control under setting [12], 94 % of control under setting [14] and 95 % of control under setting [16].
`C1CCC(N=C(NC2CCCCC2)OC2CCCCC2)CC1`: the T/C was 97 % of control (dose: 11.1 mg/kg/injection, schedule: Q01DX Z (ip), vehicle: methylcellulose (MC)); 89 % of control (dose: 16.6 mg/kg/injection, schedule: Q01DX Z (ip), vehicle: methylcellulose (MC)); 101 % of control under setting [8].
On to `COc1ccc(CCC(C)=O)cc1OC`, for which the T/C was 97 % of control under setting [1] and 93 % of control under setting [3].
Take `COC(C)(C)C(N)C(=O)O` (centres undefined): the T/C is, setting by setting: under setting [18], 102 % of control; (dose: 100.0 mg/kg/injection, schedule: Q04DX003 (ip), vehicle: other) 120 % of control; under setting [19], 102 % of control; (dose: 200.0 mg/kg/injection, schedule: Q04DX003 (ip), vehicle: other) 114 % of control; under setting [20], 102 % of control; (dose: 400.0 mg/kg/injection, schedule: Q04DX003 (ip), vehicle: other) 96 % of control.
For `CCCCCCCCCCCCCCCCCCNC(=O)N1CC1`, the T/C is 93 % of control under setting [12]; 88 % of control under setting [2]; 94 % of control under setting [14]; 100 % of control under setting [4]; 93 % of control under setting [16]; 93 % of control under setting [6].
With `NC(CCCCN=Cc1ccccc1O)C(=O)O` (centres undefined), the T/C is, setting by setting: under setting [9], 95 % of control; under setting [10], 92 % of control; under setting [11], 91 % of control.
As to `CCC(CO)Nc1nc2ccc(Cl)cc2c2ccccc12` (centres undefined), the T/C under setting [1] was 104 % of control; the T/C under setting [2] was 102 % of control; the T/C under setting [3] is 90 % of control; the T/C under setting [4] is 111 % of control; the T/C under setting [5] is 103 % of control; the T/C under setting [6] is 107 % of control.
As for `N#C/C(=C\C1CCC(Cl)C(Cl)C1)C1CCC([N+](=O)[O-])CC1` (centres undefined), the T/C runs as follows: (dose: 100.0 mg/kg/injection, schedule: Q04DX002 (ip), vehicle: saline with Tween-80) 91 % of control; (dose: 400.0 mg/kg/injection, schedule: Q04DX002 (ip), vehicle: saline with Tween-80) 91 % of control.
On to `N#Cc1ccc(S(=O)(=O)N=C(N)N)cc1`, for which the T/C is 100 % of control under setting [9], 91 % of control under setting [10] and 90 % of control under setting [11].
Turning to `CC1CCCC(C)N1C(=O)Nc1cccc(C(F)(F)F)c1` (centres undefined), the T/C by setting is: (dose: 100.0 mg/kg/injection, schedule: Q01DX009 (ip), vehicle: gum acacia) 108 % of control; (dose: 200.0 mg/kg/injection, schedule: Q01DX009 (ip), vehicle: gum acacia) 103 % of control.
Consider `COC1CCCC(/C(=C\Br)c2ccccc2)C1` (centres undefined), for which the T/C runs as follows: under setting [9], 106 % of control; under setting [10], 106 % of control; under setting [11], 115 % of control.
On to `Nc1cc(S(N)(=O)=O)ccc1N1CCCC1`, for which the T/C under setting [13] was 96 % of control, the T/C under setting [15] was 91 % of control and the T/C under setting [17] was 102 % of control.
Regarding `O=[N+]([O-])c1ccc(S(=O)(=O)O/N=C2\c3ccccc3-c3ccc([N+](=O)[O-])cc32)cc1`, the T/C was 161 % of control under setting [1]; 97 % of control under setting [2]; 109 % of control under setting [3]; 98 % of control under setting [4]; 109 % of control under setting [5]; 95 % of control under setting [6].
Turning to `CCS(=O)(=O)c1ccc(NC(=O)OC2CCCCCC2)cc1`, the T/C runs as follows: under setting [18], 91 % of control; under setting [19], 91 % of control; under setting [20], 93 % of control.
As to `CCCCCC1OC1CC1OC1CCCCCCCC(=O)OC` (centres undefined), the T/C under setting [9] was 109 % of control, the T/C under setting [10] is 95 % of control and the T/C under setting [11] was 102 % of control.
As for `CNC(=O)N/N=C(C)\C=N\NC(=O)NC`, the T/C runs as follows: (dose: 75.0 mg/kg/injection, schedule: Q01DX001 (ip), vehicle: saline) 97 % of control; (dose: 150.0 mg/kg/injection, schedule: Q01DX001 (ip), vehicle: saline) 108 % of control; (dose: 300.0 mg/kg/injection, schedule: Q01DX001 (ip), vehicle: saline) 92 % of control.
